Structures can show the parent of a compound that is named as a salt.
Tested on: wildtype Wnt signaling cascade
Experiment: HEK293 TOP Assay (Super TopFlash luciferase reporter, Wnt-3a stimulated)
Assay type: cell-based
Settings: Homo sapiens, HEK293, 16 h, HEK293 TOP reporter cell line, Wnt-3a at EC50, 16 hours incubation, compound dilution series 50 μM to 15 nM
Description: In order to discover and characterize small molecules which inhibit the wildtype Wnt pathway, a cellular reporter assay was employed. The corresponding assay cell was generated by transfection of the mammalian cell line HEK293 (ATCC, #CRL-1573) with the Super TopFlash vector (Morin, Science 275, 1997, 1787-1790; Molenaar et al., Cell 86 (3), 1996, 391-399). The HEK293 cell line is cultivated at 37° C. and 5% CO2 in DMEM (Life Technologies, #41965-039), supplemented with 2 mM glutamine, 20 mM HEPES, 1.4 mM pyruvate, 0.15% Na-bicarbonate and 10% foetal bovine serum (GIBCO, #10270). Stable transfectants were generated by selection with 300 μg/ml Hygromycin.
In preparation of the assay, the two cell lines were plated 24 hrs before beginning the test at 10000 cells per well in a 384 micro titre plate (MTP) in 30 μl growth medium. […] The recombinant human Wnt-3a was thereby applied between 2500 and 5 ng/ml in two-fold dilution steps.
Selective inhibitory activity for small molecules on the wildtype Wnt pathway was determined after parallel incubation of both (TOP and FOP) HEK293 reporter cell lines with a compound dilution series from 50 μM to 15 nM in steps of 3.16-fold dilutions in CAFTY buffer (130 mM sodium chloride, 5 mM potassium chloride, 20 mM HEPES, 1 mM magnesium chloride, 5 mM sodium bicarbonate, pH 7.4) containing 2 mM Ca^2+ and 0.01% BSA.
The compounds were thereby serially prediluted in 100% DMSO and thereafter 50 fold into the CAFTY compound dilution buffer (described above).

Structure (SMILES)	IC50 [µM]
CNC(=O)c1nc[nH]c1C(=O)Nc1ccc(NC(=O)c2cc(F)cc(F)c2)cc1 [Example 321, N^5-{4-[(3,5-difluorobenzoyl)amino]phenyl}-N^4-methyl-1H-imidazole-4,5-dicarboxamide]	50
CNC(=O)c1nc[nH]c1C(=O)Nc1ccc(NC(=O)c2ccc(C#N)c(F)c2)cc1 [Example 350, N^5-{4-[(4-cyano-3-fluorobenzoyl)amino]phenyl}-N^4-methyl-1H-imidazole-4,5-dicarboxamide]	6.5
O=C(Nc1ccc(NC(=O)c2nc[nH]c2C(=O)NCCN2CCC(O)CC2)cc1)c1ccc(F)cc1 [Example 178, N^4-{4-[(4-fluorobenzoyl)amino]phenyl}-N^5-[2-(4-hydroxypiperidin-1-yl)ethyl]-1H-imidazole-4,5-dicarboxamide]	1.17
CNC(=O)c1nc[nH]c1C(=O)Nc1ccc(NC(=O)c2ccc(C)cc2)cc1 [Example 337, N^4-methyl-N^5-{4-[(4-methylbenzoyl)amino]phenyl}-1H-imidazole-4,5-dicarboxamide]	23.5
CNC(=O)c1nc[nH]c1C(=O)Nc1ccc(NC(=O)c2ccco2)cc1 [Example 329, N^5-{4-[(furan-2-ylcarbonyl)amino]phenyl}-N^4-methyl-1H-imidazole-4,5-dicarboxamide]	50
CNC(=O)c1nc[nH]c1C(=O)Nc1ccc(NC(=O)c2cncs2)cc1 [Example 345, N^4-methyl-N^5-{4-[(1,3-thiazol-5-ylcarbonyl)amino]phenyl}-1H-imidazole-4,5-dicarboxamide]	50
COCCNC(=O)c1[nH]cnc1C(=O)Nc1ccc(NC(=O)c2ccc(F)cc2)cc1 [Example 140, N^4-{4-[(4-fluorobenzoyl)amino]phenyl}-N^5-(2-methoxyethyl)-1H-imidazole-4,5-dicarboxamide]	5.7
CNC(=O)c1nc[nH]c1C(=O)Nc1ccc(NC(=O)c2c(Cl)cc(Cl)cc2Cl)cc1 [Example 59, N^4-methyl-N^5-{4-[(2,4,6-trichlorobenzoyl)amino]phenyl}-1H-imidazole-4,5-dicarboxamide]	6.58
CC(C)OCCCNC(=O)c1nc[nH]c1C(=O)Nc1ccc(NC(=O)c2ccc(F)cc2Cl)cc1 [Example 383, N^5-{4-[(2-chloro-4-fluorobenzoyl)amino]phenyl}-N^4-[3-(propan-2-yloxy)propyl]-1H-imidazole-4,5-dicarboxamide]	50
O=C(Nc1ccc(NC(=O)c2nc[nH]c2C(=O)N2CCC2)cc1)c1ccc(F)cc1 [Example 143, 5-(azetidin-1-ylcarbonyl)-N-{4-[(4-fluorobenzoyl)amino]phenyl}-1H-imidazole-4-carboxamide]	29.5
COC(=O)c1nc[nH]c1C(=O)Nc1ccc(NC(=O)c2ccccc2Cl)nc1 [Example 111, methyl 5-({6-[(2-chlorobenzoyl)amino]pyridin-3-yl}carbamoyl)-1H-imidazole-4-carboxylate]	0.77
CNC(=O)c1nc[nH]c1C(=O)Nc1ccc(NC(=O)c2ccc(F)cc2)nc1 [Example 115, N^5-{6-[(4-fluorobenzoyl)amino]pyridin-3-yl}-N^4-methyl-1H-imidazole-4,5-dicarboxamide]	3.55
O=C(Nc1ccc(NC(=O)c2nc[nH]c2C(=O)N2CCNCC2)cc1)c1ccc(F)cc1Cl [Example 289, N-{4-[(2-chloro-4-fluorobenzoyl)amino]phenyl}-5-(piperazin-1-ylcarbonyl)-1H-imidazole-4-carb oxamide hydrochloric acid salt]	2.7
CNC(=O)c1nc[nH]c1C(=O)Nc1ccc(NC(=O)c2c(OC)cccc2OC)cc1 [Example 57, N^5-{4-[(2,6-dimethoxybenzoyl)amino]phenyl}-N^4-methyl-1H-imidazole-4,5-dicarboxamide]	33
CNC(=O)c1nc[nH]c1C(=O)Nc1ccc(NC(=O)c2cc(C)cc(C)c2)cc1 [Example 335, N^5-{4-[(3,5-dimethylbenzoyl)amino]phenyl}-N^4-methyl-1H-imidazole-4,5-dicarboxamide]	21.5
CNC(=O)c1nc[nH]c1C(=O)Nc1ccc(NC(=O)c2ccc(F)cc2O)cc1 [Example 245, N^5-{4-[(4-fluoro-2-hydroxybenzoyl)amino]phenyl}-N^4-methyl-1H-imidazole-4,5-dicarboxamide]	50
CNC(=O)c1nc[nH]c1C(=O)Nc1ccc(NC(=O)c2cccc(C#N)c2)cc1 [Example 311, N^5-{4-[(3-cyanobenzoyl)amino]phenyl}-N^4-methyl-1H-imidazole-4,5-dicarboxamide]	50

Structure (SMILES)	IC50 [µM]
O=C(Nc1ccc(NC(=O)c2nc[nH]c2C(=O)NCCN2CCOCC2)cc1)c1ccc(F)cc1 [Example 151, N^4-{4-[(4-fluorobenzoyl)amino]phenyl}-N^5-[2-(morpholin-4-yl)ethyl]-1H-imidazole-4,5-dicarboxamide]	0.95
CNC(=O)c1[nH]cnc1C(=O)Nc1ccc(NC(=O)c2ccc(F)cc2Cl)c(OC(F)(F)F)c1 [Example 291, N^4-{4-[(2-chloro-4-fluorobenzoyl)amino]-3-(trifluoromethoxy)phenyl}-N^5-methyl-1H-imidazole-4,5-dicarboxamide]	14.3
CNC(=O)c1nc[nH]c1C(=O)Nc1ccc(NC(=O)c2cccc(OC)c2)cc1 [Example 305, N^5-{4-[(3-methoxybenzoyl)amino]phenyl}-N^4-methyl-1H-imidazole-4,5-dicarboxamide]	31.5
O=C(Nc1ccc(NC(=O)c2nc[nH]c2C(=O)NCC(F)(F)F)cc1OC(F)(F)F)c1ccc(F)cc1Cl [Example 292, N^4-{4-[(2-chloro-4-fluorobenzoyl)amino]-3-(trifluoromethoxy)phenyl}-N^5-(2,2,2-trifluoroethyl)-1H-imidazole-4,5-dicarboxamide]	11
CNC(=O)c1nc[nH]c1C(=O)Nc1ccc(NC(=O)c2ccc(Cl)cc2)cc1 [Example 306, N^5-{4-[(4-chlorobenzoyl)amino]phenyl}-N^4-methyl-1H-imidazole-4,5-dicarboxamide]	3.15
CNC(=O)c1nc[nH]c1C(=O)Nc1ccc(NC(=O)c2ccc(C)cn2)cc1 [Example 357, N^4-methyl-N^5-(4-{[(5-methylpyridin-2-yl)carbonyl]amino}phenyl)-1H-imidazole-4,5-dicarboxamide]	11.2
CNC(=O)c1nc[nH]c1C(=O)Nc1ccc(NC(=O)c2ccc(F)cc2)c(OC)c1 [Example 103, N^5-{4-[(4-fluorobenzoyl)amino]-3-methoxyphenyl}-N^4-methyl-1H-imidazole-4,5-dicarboxamide]	38
CNC(=O)c1nc[nH]c1C(=O)Nc1ccc(NC(=O)c2cccc(C)c2)cc1 [Example 336, N^4-methyl-N^5-{4-[(3-methylbenzoyl)amino]phenyl}-1H-imidazole-4,5-dicarboxamide]	11
O=C(Nc1ccc(NC(=O)c2nc[nH]c2C(=O)NCCO)cc1)c1ccc(F)cc1 [Example 136, N^4-{4-[(4-fluorobenzoyl)amino]phenyl}-N^5-(2-hydroxyethyl)-1H-imidazole-4,5-dicarboxamide]	2.4
NC1CCN(C(=O)c2[nH]cnc2C(=O)Nc2ccc(NC(=O)c3ccc(F)cc3Cl)cc2)C1 (stereo not drawn) [Example 285, 5-[(3-aminopyrrolidin-1-yl)carbonyl]-N-{4-[(2-chloro-4-fluorobenzoyl)amino]phenyl}-1H-imidazole-4-carboxamide hydrochloride salt]	1.15
CNC(=O)c1nc[nH]c1C(=O)Nc1ccc(NC(=O)c2ccc(OC)c(F)c2)cc1 [Example 338, N^5-{4-[(3-fluoro-4-methoxybenzoyl)amino]phenyl}-N^4-methyl-1H-imidazole-4,5-dicarboxamide]	2.8
CC(C)CNC(=O)c1[nH]cnc1C(=O)Nc1ccc(NC(=O)c2ccc(F)cc2)cc1 [Example 146, N^4-{4-[(4-fluorobenzoyl)amino]phenyl}-N^5-isobutyl-1H-imidazole-4,5-dicarboxamide]	5.15
CNC(=O)c1nc[nH]c1C(=O)Nc1ccc(NC(=O)c2ccccc2N(C)C)cc1 [Example 339, N^5-(4-{[2-(dimethylamino)benzoyl]amino}phenyl)-N^4-methyl-1H-imidazole-4,5-dicarboxamide]	45.5
CNC(=O)c1nc[nH]c1C(=O)Nc1ccc(NC(=O)c2cccc(F)c2)cc1 [Example 331, N^5-{4-[(3-fluorobenzoyl)amino]phenyl}-N^4-methyl-1H-imidazole-4,5-dicarboxamide]	8.6
O=C(Nc1ccc(NC(=O)c2nc[nH]c2C(=O)NC(CO)CO)cc1)c1ccc(F)cc1 [Example 150, N^5-(1,3-dihydroxypropan-2-yl)-N^4-{4-[(4-fluorobenzoyl)amino]phenyl}-1H-imidazole-4,5-dicarboxamide]	50
CNC(=O)c1nc[nH]c1C(=O)Nc1ccc(NC(=O)c2cc(F)c(F)c(Cl)c2)cc1 [Example 362, N^5-{4-[(3-chloro-4,5-difluorobenzoyl)amino]phenyl}-N^4-methyl-1H-imidazole-4,5-dicarboxamide]	50

— US9884063B2, “Amido-substituted azole compounds” (Bayer Pharma Aktiengesellschaft, priority 2014, dated 2018)
